# Data from PMC11255275, “Structural insights into the triple agonism at GLP-1R, GIPR and GCGR manifested by retatrutide” (Cell Discovery, 2024).
# How the values were obtained:
# GLP-1R = target: T1, GLP-1R (Homo sapiens, UniProt P43220); assay: cAMP accumulation, wild-type GLP-1R; format: cell-based; conditions: GLP-1R WT, HEK-293T, TR-FRET, mean ± S.E.M.
# T1 construct: expressed in transfected cells; host or cells: HEK-293T
# Description: HEK-293T cells were maintained at 37°C in 5% CO2 incubator and seeded onto 6-well cell […]
# culture plates before transfection. After overnight culture, the cells were transiently transfected […]
# with various constructs using Lipofectamine 2000 transfection reagent (Invitrogen). After 24 h, […]
# the transfected cells were seeded onto 384-microtiter plates at a density of 3,000 cells per well […]
# in stimulation buffer (HBSS supplemented with 5 mM HEPES, 0.1% (w/v) casein and 0.5 mM […]
# 3-isobutyl-1-methylxanthine). Different concentrations of retatrutide in stimulation buffer were […]
# added, and the stimulation lasted for 40 min. The reaction was stopped by addition of cAMP […]
# detection buffer containing Eu-cAMP tracer and ULight-anti-cAMP. Plates were then incubated for […]
# 60 min at RT. Time-resolved FRET signals were measured at 620 nm and 665 nm, respectively, by […]
# an EnVision multilabel plate reader (PerkinElmer). Data were analyzed in GraphPad PRISM 9.5 […]
# and all values were normalized to that of the wild-type (WT). […]
# accumulation was measured in wild-type (WT) and single-point mutated GLP-1R, GIPR or […]
# of the WT and dose-response curves were analyzed using a three-parameter logistic equation. […]
# curves were analyzed using a three-parameter logistic equation to obtain pEC50 and Emax values. […]
# way ANOVA was used to determine statistical difference. N.D., values that could not be determined due […]
# GIPR = conditions: GIPR, more potent than the endogenous hormone by this factor; cited from earlier work
# Excerpt: The most successful treatments currently available include glucagon-like peptide-1 (GLP-1) receptor agonists (GLP-1RAs), exemplified by semaglutide (approved in 2017, $19.9 billion sales in 2023)[3] and tirzepatide (approved in 2022, $5.3 billion sales in 2023)[4].
# T1 sequence (P43220 24-463): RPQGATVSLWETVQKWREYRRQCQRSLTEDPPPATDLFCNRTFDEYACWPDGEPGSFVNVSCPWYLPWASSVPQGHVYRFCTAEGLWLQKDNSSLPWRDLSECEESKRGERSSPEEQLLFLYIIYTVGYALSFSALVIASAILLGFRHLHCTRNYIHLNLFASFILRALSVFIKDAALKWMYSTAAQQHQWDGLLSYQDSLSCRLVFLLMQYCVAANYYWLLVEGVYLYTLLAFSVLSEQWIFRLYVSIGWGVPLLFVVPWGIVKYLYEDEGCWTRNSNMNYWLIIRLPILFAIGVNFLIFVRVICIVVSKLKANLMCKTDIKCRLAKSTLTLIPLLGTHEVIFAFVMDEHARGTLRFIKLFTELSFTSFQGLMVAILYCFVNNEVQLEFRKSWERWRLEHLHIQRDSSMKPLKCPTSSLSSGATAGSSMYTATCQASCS
smiles,measurement,setting,value
CC[C@H](C)[C@H](NC(=O)[C@H](Cc1ccccc1)NC(=O)[C@H](C)NC(=O)C(C)(C)NC(=O)[C@H](CCC(N)=O)NC(=O)[C@H](C)NC(=O)[C@H](CCCCNC(=O)COCCOCCNC(=O)CC[C@H](NC(=O)CCCCCCCCCCCCCCCCCCC(=O)O)C(=O)O)NC(=O)[C@H](CCCCN)NC(=O)[C@H](CC(=O)O)NC(=O)[C@H](CC(C)C)NC(=O)[C@](C)(CC(C)C)NC(=O)[C@@H](NC(=O)[C@H](CO)NC(=O)[C@H](Cc1ccc(O)cc1)NC(=O)[C@H](CC(=O)O)NC(=O)[C@H](CO)NC(=O)[C@@H](NC(=O)[C@H](Cc1ccccc1)NC(=O)[C@@H](NC(=O)CNC(=O)[C@H](CCC(N)=O)NC(=O)C(C)(C)NC(=O)[C@@H](N)Cc1ccc(O)cc1)[C@@H](C)O)[C@@H](C)O)[C@@H](C)CC)C(=O)N[C@@H](CCC(=O)O)C(=O)N[C@@H](Cc1ccc(O)cc1)C(=O)N[C@@H](CC(C)C)C(=O)N[C@@H](CC(C)C)C(=O)N[C@@H](CCC(=O)O)C(=O)NCC(=O)NCC(=O)N1CCC[C@H]1C(=O)N[C@@H](CO)C(=O)N[C@@H](CO)C(=O)NCC(=O)N[C@@H](C)C(=O)N1CCC[C@H]1C(=O)N1CCC[C@H]1C(=O)N1CCC[C@H]1C(=O)N[C@@H](CO)C(N)=O [retatrutide],Emax ± S.E.M. (% WT),"GLP-1R; 40 min, n at least 3",100.00 ± 2.75 % WT
same,EC50,"GLP-1R; 40 min stimulation, at least 3 independent experiments in quadruplicate",8.91 pM
same,potency factor compared to endogenous hormone,GIPR,8.9
